# Starred links: 1 amine or outer side, 2 acyl side, 3 side chain; linkers in the order of their positions; H or OH if unused. Non-standard residues stand in square brackets, D forms with d. Residues, ends and D or L forms follow the SMILES beside them. Groups on a side chain read outwards from the residue. *: point of attachment. C20 diacid = O=C(O)CCCCCCCCCCCCCCCCCCC(=O)*; γGlu = O=C(O)[C@H](CCC(=O)[*:2])N[*:1]; NMeI = CC[C@H](C)[C@H](NC)C(=O)O; AEEA = NCCOCCOCC(=O)O
# Key:
# [1] = test system: UniNx db/db AAV renin mice; experiment: Uninephrectomized db/db AAV renin model of diabetic nephropathy; format: in vivo
# Method: The uninephrectomized db/db adeno-associated viral (AAV) renin model represents a progressive model of diabetic kidney disease with hypertension driven by an AAV renin transgene (Am J Physiol Regul Integr Comp Physiol. 309(5):R467-74, (2015)).
# The uninephrectomy (UniNx) surgery on female db/db mice on a C57BLKS/J background (obtained from Harlan Laboratories) is performed by Harlan Laboratories at 4 weeks of age with removal of the right kidney to accelerate the diabetic kidney disease. Animals are received at 5 weeks of age and housed in micro-isolator cages at 3 mice per cage and are on a 12 hour light/dark cycle. All db/db mice are fed ad libitum with Purina special diet 5008 and allowed free access to autoclaved water.
# Mice are acclimated for 7 weeks prior to administration of AAV Renin (5×10^9 GC) intravenously by the retro-orbital sinus to induce persistent hypertension. Randomization by urine albumin to creatinine ratio (ACR), blood glucose and body weight is done at 15 weeks of age (a point at which renal disease and pathology are established in this model based on observations) into 2 groups of 12 saline control mice and 33 mice to receive Lisinopril treatment.
# Dosing with Lisinopril (30 mg/L) begins at 16 weeks of age. After 2 weeks of Lisinopril treatment, the 33 mice are randomized by urine ACR, blood glucose and body weight into 4 groups (one group of 9 mice and 3 groups of 8 mice).
# In the 4 groups of UniNx db/db AAV renin mice receiving Lisinopril treatment, either 0.9% physiological saline for injection (“saline control” N=9) or different dose levels of Example 4 (7.2, 24 or 72 nmol/kg, N=8 per dose level) are dosed at 0.2 mL s.c. per injection beginning at 18 weeks of age and continued 3 times weekly for 12 weeks. Albumin and creatinine are measured in urine with a Roche Hitachi Modular Analytics P analyzer with Roche reagents for detection of albumin and creatinine.
# For all the groups, the parameters measured are body weight, kidney weight, heart weight, urine albumin to creatinine ratio, serum creatinine and renal pathology scores for mesangial matrix expansion, glomerular fibrosis, tubular regeneration, interstitial inflammation and interstitial fibrosis.
# At 15 and 27 weeks of age, blood (30 to 50 uL) from all the UniNx db/db AAV Renin mice is obtained from the tail vein and dropped onto a Precision PCx blood glucose sensor electrode strip (Abbott Laboratories) for blood glucose determination with a MediSense Precision PCx glucometer (Abbott Laboratories). Blood glucose data is used to block the UniNx db/db mice into equivalent groups. Body weight is determined at baseline and at termination with a Metler Toledo Balance. The heart and kidney are removed at necropsy and weighed on a Metler Toledo Balance. Blood (500 ul) is collected from the retro-orbital sinus at termination under isoflurane anesthesia. The clotted blood is centrifuged to obtain serum. Serum is analyzed for creatinine on a Roche Hitachi Modular Analytics P analyzer with reagents from Roche.
# Urine is collected by a spot collection method to collect urine over a 2-4 hr time period. An individual mouse is placed on top of a 96 well polypropylene microplate and then covered by a Plexiglas chamber with holes for breathing but no access to food or water. At the end of the time period, the urine is removed from the plate with a micropipette and placed on ice, centrifuged and subjected to albumin and creatinine analysis. Urine albumin, creatinine and glucose are determined on a Roche Hitachi Modular Analytics P analyzer. Urine creatinine is determined with the Creatinine Plus reagent by Roche. For urine albumin, the Roche Microalbumin assay is modified to adapt the calibration curve for measuring urine albumin in mice. Albuminuria was defined as albumin to creatinine ratio (ACR).
# Kidneys are removed at study termination, fixed in formalin and processed for paraffin sectioning according to standard methodology. […]
# [2] = in vivo; conditions: male, CD-1, mouse, sc, 350 nmol/kg
# Method: Plasma concentrations of compounds were determined by LC/MS methods. Each method measured the intact compound; peptide plus linked time extension. For each assay, the compound and an analog, used as an internal standard (IS), were extracted from 100% mouse, rat or monkey plasma (25 μl) using acetonitrile. Two distinct layers were formed upon centrifugation with the compound and the IS located in the supernatant layer. An aliquot of the supernatant (80 μl) was transferred to a Thermo Protein Precipitation Plate with water (150 μl) and formic acid (25 μl) followed by mixing. A final 31% acetonitrile in 10% formic acid sample (10 μl) was loaded onto a Supelco Analytical Discovery BIO Wide Pore C5-3 column (5 cm×1 mm, 3 μm). The column effluent was directed into a Thermo Q-Exactive mass spectrometer for detection and quantitation.
# Male CD-1 mice were administered a single subcutaneous dose (350, 386 or 388 nmol/kg) of a compound described herein in 20 mM Tris-HCl Tris Buffer (pH 7 or 8) at a volume of 0.05 or 0.06 mL/animal. Blood was collected at 6, 12, 24, 48, 72, 96, 120 and 168 hours postdose for pharmacokinetic characterization (101).
smiles,measurement,setting,value
CC[C@H](C)[C@H](NC)C(=O)N[C@H](C(=O)N[C@@H](CC(C)C)C(=O)N[C@@H](CO)C(=O)N[C@@H](CC(C)C)C(=O)N[C@@H](CC(=O)O)C(=O)N[C@H](C(=O)N1CCC[C@H]1C(=O)N[C@H](C(=O)NCC(=O)N[C@@H](CC(C)C)C(=O)N[C@@H](CC(C)C)C(=O)N[C@@H](CCC(N)=O)C(=O)N[C@H](C(=O)N[C@@H](CC(C)C)C(=O)N[C@@H](CC(C)C)C(=O)N[C@@H](CCC(=O)O)C(=O)N[C@@H](CCC(N)=O)C(=O)N[C@@H](CCC(=O)O)C(=O)N[C@@H](CCCCN)C(=O)N[C@@H](CCC(N)=O)C(=O)N[C@@H](CCC(=O)O)C(=O)N[C@@H](CCCCN)C(=O)N[C@@H](CCC(=O)O)C(=O)N[C@@H](CCCCN)C(=O)N[C@@H](CCC(N)=O)C(=O)N[C@@H](CCC(N)=O)C(=O)N[C@@H](C)C(=O)N[C@@H](CCCCNC(=O)COCCOCCNC(=O)COCCOCCNC(=O)CC[C@H](NC(=O)CC[C@H](NC(=O)CCCCCCCCCCCCCCCCCCC(=O)O)C(=O)O)C(=O)O)C(=O)N[C@H](C(=O)N[C@@H](CC(N)=O)C(=O)N[C@@H](C)C(=O)N[C@@H](CCC(N)=O)C(=O)N[C@H](C(=O)N[C@@H](CC(C)C)C(=O)N[C@@H](C)C(=O)N[C@@H](CCC(N)=O)C(=O)N[C@H](C(N)=O)C(C)C)[C@@H](C)CC)[C@@H](C)O)[C@@H](C)CC)[C@@H](C)CC)C(C)C)C(C)C [Example 4] (H-[NMeI]VLSLDVPIGLLQILLEQEKQEKEKQQAK([AEEA-AEEA-γGlu-γGlu-C20 diacid])TNAQILAQV-NH2),deaths over the course of the study,[1]; Lisinopril plus 7.2 nmol/kg Example 4 group (N=8),1
same,deaths over the course of the study,[1]; Lisinopril plus 24 nmol/kg Example 4 group (N=8),3
same,deaths over the course of the study,[1]; Lisinopril plus 72 nmol/kg Example 4 group (N=8),3
same,CL/F,[2],0.113 mL/min/kg
same,half-life,[2],18 h

# From patent US10894817B2, “Fatty acid modified urocortin-2 analogs for the treatment of diabetes and chronic kidney disease” (priority 2016, dated 2021)
